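Growth conditions: 96-well plates. Treatment: test compound, 48 hours, 5 concentrations. Analysis: linear interpolation between bracketing concentrations; unreached endpoints set to highest concentration. TGI: concentration producing complete growth inhibition.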
How the values were obtained:
Test in all cases: NCI anticancer screen, dose series, 48 h
[1] = test system: CCRF-CEM leukemia
[2] = test system: TK-10 renal
[3] = test system: IGROV1 ovarian
[4] = test system: NCI-H460 lung
[5] = test system: HS 578T breast
[6] = test system: DU-145 prostate
[7] = test system: HT29 colon
[8] = test system: KM12 colon
[9] = test system: DMS 114 small cell lung
[10] = test system: SF-295 CNS
[11] = test system: SK-MEL-2 melanoma
[12] = test system: SNB-78 CNS
[13] = test system: RXF 393 renal
[14] = test system: CAKI-1 renal
[15] = test system: SNB-19 CNS
[16] = test system: SK-OV-3 ovarian
[17] = test system: U251 CNS
[18] = test system: UACC-257 melanoma
[19] = test system: A549 NSCLC
[20] = test system: NCI-H23 lung
[21] = test system: KM20L2 colon
[22] = test system: OVCAR-3 ovarian
[23] = test system: HOP-62 NSCLC
[24] = test system: SF-268 CNS
[25] = test system: M14 melanoma
[26] = test system: LOX IMVI melanoma
[27] = test system: HCT-15 colon
[28] = test system: HOP-92 NSCLC
[29] = test system: HL-60(TB) leukemia
[30] = test system: UO-31 renal
[31] = test system: K-562 leukemia
[32] = test system: DLD-1 colon
[33] = test system: HCC-2998 colon
[34] = test system: SNB-75 CNS
[35] = test system: BT-549 breast
[36] = test system: OVCAR-8 ovarian
[37] = test system: MALME-3M melanoma
[38] = test system: MDA-N
[39] = test system: COLO 205 colon
[40] = test system: PC-3 prostate
[41] = test system: MCF7 breast
[42] = test system: SF-539 CNS
[43] = test system: 786-0 renal
[44] = test system: SR leukemia
[45] = test system: HOP-18 NSCLC
[46] = test system: T-47D breast
[47] = test system: NCI-H226 lung
[48] = test system: HCT-116 colon
[49] = test system: SK-MEL-28 melanoma
[50] = test system: SN12C renal
[51] = test system: M19-MEL melanoma
[52] = test system: MDA-MB-435
[53] = test system: LXFL 529 NSCLC
[54] = test system: XF 498 CNS
[55] = test system: UACC-62 melanoma
[56] = test system: NCI-H522 lung
[57] = test system: ACHN renal
[58] = test system: DMS 273 small cell lung
[59] = test system: OVCAR-4 ovarian
[60] = test system: MDA-MB-231 breast
[61] = test system: SK-MEL-5 melanoma
[62] = test system: NCI/ADR-RES ovarian
[63] = test system: EKVX NSCLC
[64] = test system: SW-620 colon
[65] = test system: RPMI-8226 leukemia
[66] = test system: A498 renal
[67] = test system: OVCAR-5 ovarian
[68] = test system: MOLT-4 leukemia
[69] = test system: RXF-631 renal

## Cn1c2ccccc2c2ccc3c(c21)C(=O)C=CC3=O
[1]
  TGI: 14.5 µM
[2]
  TGI: 12.2 µM
[3]
  TGI: 29.9 µM
[4]
  TGI: 46.4 µM
[5]
  TGI: 58.5 µM
[6]
  TGI: 29.5 µM
[7]
  TGI: 26 µM
[8]
  TGI: 60.7 µM
[9]
  TGI: 21.5 µM
[10]
  TGI: 42.1 µM
[11]
  TGI: 29.9 µM
[12]
  TGI: 48.4 µM
[13]
  TGI: 5.96 µM
[14]
  TGI: 11.8 µM
[15]
  TGI: 46.4 µM
[16]
  TGI: 33.2 µM
[17]
  TGI: 25.1 µM
[18]
  TGI: 23.1 µM
[19]
  TGI: 61 µM
[20]
  TGI: 27.3 µM
[21]
  TGI: 33.9 µM
[22]
  TGI: 20.9 µM
[23]
  TGI: 48 µM
[24]
  TGI: 30.5 µM
[25]
  TGI: 22.1 µM
[26]
  TGI: 10.5 µM
[27]
  TGI: 12.1 µM
[28]
  TGI: 4.66 µM
[29]
  TGI: 11.8 µM
[30]
  TGI: 13.7 µM
[31]
  TGI: > 45.1 µM
[32]
  TGI: 6.02 µM
[33]
  TGI: 15.1 µM
[34]
  TGI: 32.5 µM
[35]
  TGI: 18.9 µM
[36]
  TGI: 31.1 µM
[37]
  TGI: 12.2 µM
[38]
  TGI: 19.3 µM
[39]
  TGI: 6.9 µM
[40]
  TGI: 12.2 µM
[41]
  TGI: 8.96 µM
[42]
  TGI: 26.3 µM
[43]
  TGI: 9.2 µM
[44]
  TGI: 15.9 µM
[45]
  TGI: 5.58 µM
[46]
  TGI: 10.7 µM
[47]
  TGI: 51 µM
[48]
  TGI: 10.9 µM
[49]
  TGI: 25.7 µM
[50]
  TGI: 26.5 µM
[51]
  TGI: 24.5 µM
[52]
  TGI: 10.9 µM
[53]
  TGI: 8.26 µM
[54]
  TGI: 4.88 µM
[55]
  TGI: 26.7 µM
[56]
  TGI: 6.36 µM
[57]
  TGI: 8.33 µM
[58]
  TGI: 25.8 µM
[59]
  TGI: 4.08 µM
[60]
  TGI: 18.7 µM
[61]
  TGI: 31 µM
[62]
  TGI: 14.4 µM
[63]
  TGI: 38.6 µM
[64]
  TGI: 4.46 µM
[65]
  TGI: 14.6 µM
[66]
  TGI: > 59.4 µM
[67]
  TGI: 28.3 µM

## C/C(CC(=O)Nc1ccc(C)c(C)c1)=N\NC(N)=S
[1]
  TGI: > 100 µM
[2]
  TGI: > 100 µM
[3]
  TGI: > 100 µM
[4]
  TGI: > 100 µM
[7]
  TGI: > 100 µM
[8]
  TGI: > 100 µM
[9]
  TGI: > 100 µM
[10]
  TGI: > 100 µM
[11]
  TGI: > 100 µM
[12]
  TGI: > 100 µM
[13]
  TGI: > 100 µM
[16]
  TGI: > 100 µM
[17]
  TGI: > 100 µM
[18]
  TGI: > 100 µM
[19]
  TGI: > 100 µM
[20]
  TGI: > 100 µM
[21]
  TGI: > 100 µM
[22]
  TGI: > 100 µM
[23]
  TGI: > 100 µM
[24]
  TGI: > 100 µM
[25]
  TGI: > 100 µM
[26]
  TGI: > 100 µM
[28]
  TGI: > 100 µM
[29]
  TGI: > 100 µM
[68]
  TGI: > 100 µM
[30]
  TGI: > 100 µM
[31]
  TGI: > 100 µM
[32]
  TGI: > 100 µM
[33]
  TGI: > 100 µM
[34]
  TGI: > 100 µM
[36]
  TGI: > 100 µM
[37]
  TGI: > 100 µM
[39]
  TGI: > 100 µM
[42]
  TGI: > 100 µM
[43]
  TGI: > 100 µM
[47]
  TGI: > 100 µM
[48]
  TGI: > 100 µM
[49]
  TGI: > 100 µM
[53]
  TGI: > 100 µM
[55]
  TGI: > 100 µM
[56]
  TGI: > 100 µM
[57]
  TGI: > 100 µM
[58]
  TGI: > 100 µM
[61]
  TGI: > 100 µM
[63]
  TGI: > 100 µM
[64]
  TGI: > 100 µM
[65]
  TGI: > 100 µM
[67]
  TGI: > 100 µM
[69]
  TGI: > 100 µM
